Assay results from the PolyMetriX glass transition set.
± gives the standard deviation of the reports.

With `*C(=O)Nc1ccc(Oc2ccc(NC(=O)c3ccc4c(c3)C(=O)N(c3ccc(Cc5ccc(N6C(=O)c7ccc(*)cc7C6=O)cc5)cc3)C4=O)cc2)cc1` (repeat unit) as the compound, how does the glass transition temperature read?
The glass transition temperature was 251.00 °C.

With `*CC(*)CCCC` (repeat unit) as the compound, how does the glass transition temperature read?
The glass transition temperature was -50.00 °C.

With `*Oc1ccc2ccc(Oc3ccc(C(=O)Nc4cccc(NC(=O)c5ccc(*)cc5)c4)cc3)cc2c1` (repeat unit) as the compound, how does the glass transition temperature read?
Its glass transition temperature is 168.00 °C.

For `*OC(=O)Cc1ccc(CC(*)=O)cc1` (repeat unit), which glass transition temperature is on record?
The glass transition temperature was 65.00 °C.

For `*c1ccc(*)c(C(=O)c2ccc(F)cc2)c1` (repeat unit), which glass transition temperature is on record?
Its glass transition temperature is 194.00 °C.

Which glass transition temperature does the source give for `*OC(COc1ccccc1)CC(*)=O` (repeat unit) here?
Its glass transition temperature is 20.00 °C.

Which glass transition temperature does the source give for `*CC(*)c1ccccc1C(=O)Oc1ccccc1` (repeat unit) here?
Its glass transition temperature is 124.00 °C.

With `*Oc1ccc(CC(NC(=O)Cc2ccc(OC(=O)CCC(*)=O)cc2)C(=O)OCC)cc1` (repeat unit) as the compound, how does the glass transition temperature read?
Its glass transition temperature is 75.50 °C.

For `*CCN(CCOC(=O)Nc1ccc(C)c(NC(=O)O*)c1)c1ccc([N+](=O)[O-])cc1C` (repeat unit), which glass transition temperature is on record?
The glass transition temperature was 98.00 °C.

Which glass transition temperature does the source give for `*C(=O)Nc1ccc(Oc2cccc(NC(=O)c3ccc4c(c3)C(=O)N(c3ccc(Oc5ccc(C6(c7ccc(Oc8ccc(N9C(=O)c%10ccc(*)cc%10C9=O)cc8)cc7)NC(=O)c7ccccc76)cc5)cc3)C4=O)c2)cc1` (repeat unit) here?
The glass transition temperature was 302.00 °C.

Which glass transition temperature does the source give for `*Oc1ccc(OC(=O)c2ccc(-c3ccc(C(*)=O)cc3)cc2-c2ccccc2)cc1` (repeat unit) here?
The glass transition temperature was 140.00 °C.

With `*CCCCCCCC(=O)OCC1(C)COC(*)OC1` (repeat unit) as the compound, how does the glass transition temperature read?
Its glass transition temperature is -26.00 °C.

Which glass transition temperature does the source give for `*c1ccc(OCC2CCC(COc3ccc(-n4c(=O)c5cc6c(=O)n(*)c(=O)c6cc5c4=O)cc3)CC2)cc1` (repeat unit) here?
Its glass transition temperature is 306.70 °C.

With `*Oc1ccc(Oc2ccc(C(=O)c3ccc(*)cc3)cc2)cc1-c1cc(C(F)(F)F)cc(C(F)(F)F)c1` (repeat unit) as the compound, how does the glass transition temperature read?
The glass transition temperature was 146.00 °C.

With `*c1c(C)cc(C)c(N2C(=O)c3ccc(Sc4ccc5c(c4)C(=O)N(*)C5=O)cc3C2=O)c1C` (repeat unit) as the compound, how does the glass transition temperature read?
Its glass transition temperature is 378.00 °C.

For `*c1ccc(Oc2ccc(C(c3ccc(Oc4ccc(N5C(=O)c6ccc(Oc7ccc(Sc8ccc(Oc9ccc%10c(c9)C(=O)N(*)C%10=O)cc8)cc7)cc6C5=O)cc4)cc3)(C(F)(F)F)C(F)(F)F)cc2)cc1` (repeat unit), which glass transition temperature is on record?
The glass transition temperature was 217.50 °C.

For `*CC(*)C(=O)c1ccccc1` (repeat unit) [Poly(phenyl vinyl ketone)], which glass transition temperature is on record?
Its glass transition temperature is 60.80 ± 17 °C.

With `*c1ccc2c(c1)C(=O)N(c1ccc(Oc3ccc(N4C(=O)c5ccc(C(F)(F)C(F)(F)C(F)(F)C(F)(F)C(F)(F)C(F)(F)C(*)(F)F)cc5C4=O)cc3)cc1)C2=O` (repeat unit) as the compound, how does the glass transition temperature read?
The glass transition temperature was 178.00 °C.

With `*O[Si](*)(C)CCCCCCOc1ccc(C(=O)Oc2ccc(C#N)cc2)cc1` (repeat unit) as the compound, how does the glass transition temperature read?
The glass transition temperature was 8.00 °C.

With `*C1C(=O)OC(=O)C1C1C2CC(C(=O)OC3CCCCC3)C(C2)C1*` (repeat unit) as the compound, how does the glass transition temperature read?
Its glass transition temperature is 195.00 °C.

For `*CCCCCCCCCCCCC(=O)O*` (repeat unit), which glass transition temperature is on record?
The glass transition temperature was -36.00 °C.

For `*C(=O)Oc1ccc(OCCCCCCCCCCCCOc2ccc(OC(=O)c3ccc4c(c3)C(=O)N(c3ccc(Cc5ccc(N6C(=O)c7ccc(*)cc7C6=O)cc5)cc3)C4=O)cc2)cc1` (repeat unit), which glass transition temperature is on record?
The glass transition temperature was 125.00 °C.

With `*Oc1ccc(C(c2ccc(Oc3ccc(C(=O)c4ccccc4-c4ccccc4C(=O)c4ccc(*)cc4)cc3)cc2)(C(F)(F)F)C(F)(F)F)cc1` (repeat unit) as the compound, how does the glass transition temperature read?
Its glass transition temperature is 178.50 °C.

For `*CCCN(*)C(=O)CC` (repeat unit), which glass transition temperature is on record?
The glass transition temperature was 8.00 °C.

For `*Oc1ccc(OC(=O)c2cc(OCCCCOCC3CCCN3c3ccc([N+](=O)[O-])cc3)c(C(*)=O)cc2OCCCCOCC2CCCN2c2ccc([N+](=O)[O-])cc2)cc1` (repeat unit), which glass transition temperature is on record?
Its glass transition temperature is 68.00 °C.

For `*Oc1ccc(NC(=O)c2ccc(-c3ccc(C(=O)Nc4ccc(Oc5ccc(C6(c7ccc(*)cc7)CC7CCC6C7)cc5)cc4)cc3)cc2)cc1` (repeat unit), which glass transition temperature is on record?
The glass transition temperature was 296.00 °C.

Which glass transition temperature does the source give for `*c1ccc2c(c1)C(=O)N(c1cccc(Oc3ccc(S(=O)(=O)c4ccc(Oc5cccc(N6C(=O)c7ccc(C(*)(C(F)(F)F)C(F)(F)F)cc7C6=O)c5)cc4)cc3)c1)C2=O` (repeat unit) here?
The glass transition temperature was 209.50 °C.

For `*OC(=O)c1ccc(C(=O)OC2COC3C(*)COC23)cc1` (repeat unit), which glass transition temperature is on record?
Its glass transition temperature is 255.50 °C.

For `*COc1ccc(C(C)(C)c2ccc(Oc3ccc(*)n3-c3ccc(C#N)cc3)cc2)cc1` (repeat unit), which glass transition temperature is on record?
The glass transition temperature was 73.13 °C.

For `*c1ccc2c(c1)C(=O)N(c1ccc(C3(c4ccc(N5C(=O)c6ccc(C(*)(C(F)(F)F)C(F)(F)F)cc6C5=O)cc4)c4ccccc4-c4ccccc43)cc1)C2=O` (repeat unit), which glass transition temperature is on record?
Its glass transition temperature is 370.00 °C.

With `*CCC(c1ccccc1)[Si](*)(C)C` (repeat unit) as the compound, how does the glass transition temperature read?
The glass transition temperature was 27.00 °C.

For `*c1ccc(Oc2cccc(Oc3ccc(N4C(=O)c5ccc(Oc6ccc(S(=O)(=O)c7ccc(Oc8ccc9c(c8)C(=O)N(*)C9=O)cc7)cc6)cc5C4=O)cc3)c2)cc1` (repeat unit), which glass transition temperature is on record?
The glass transition temperature was 219.00 °C.

With `*CC(OCC(C)C)C(C)(C(=O)OC)C(*)(C)C(=O)OC` (repeat unit) as the compound, how does the glass transition temperature read?
Its glass transition temperature is 125.50 °C.

With `*C(=O)Nc1ccc(-c2ccc(NC(=O)c3ccc4c(c3)C(=O)N(c3c(C)cc(C)c(N5C(=O)c6ccc(*)cc6C5=O)c3C)C4=O)cc2C)c(C)c1` (repeat unit) as the compound, how does the glass transition temperature read?
Its glass transition temperature is 259.00 °C.

For `*CC(*)(CC(=O)OC1CCCCC1)C(=O)OC1CCCCC1` (repeat unit), which glass transition temperature is on record?
Its glass transition temperature is 142.00 °C.

Which glass transition temperature does the source give for `*Oc1ccc(NC(=O)c2cc(C(=O)Nc3ccc(*)cc3)cc(C(F)(F)C(F)(F)C(F)(F)C(F)(F)C(F)(F)C(F)(F)C(F)(F)C(F)(F)F)c2)cc1` (repeat unit) here?
The glass transition temperature was 230.00 °C.

For `*CCCCOc1ccc(CCc2ccc(O*)cc2C)cc1` (repeat unit), which glass transition temperature is on record?
The glass transition temperature was 24.90 °C.

With `*CC(O)CN(CC(O)CN(*)c1ccccc1)c1ccc(/N=N/c2ccc([N+](=O)[O-])cc2)cc1` (repeat unit) as the compound, how does the glass transition temperature read?
The glass transition temperature was 70.00 °C.

Which glass transition temperature does the source give for `*CC(CCl)(CCl)CO*` (repeat unit) [Poly(oxy-2,2-dichloromethyltrimethylene) ] here?
The glass transition temperature was -8 ± 10 °C.

With `*OCCOC(=O)c1cc(/N=N/c2ccc(OCC)cc2)ccc1-c1ccc(/N=N/c2ccc(OCC)cc2)cc1C(=O)OCCOc1nc(-c2ccc(OCCCC)cc2)nc(*)c1-c1ccc(OC)cc1` (repeat unit) as the compound, how does the glass transition temperature read?
The glass transition temperature was 126.00 °C.

For `*c1ccc(Oc2ccc(-c3ccc(Oc4ccc(N5C(=O)c6ccc(Oc7ccc(C8(c9ccc(Oc%10ccc%11c(c%10)C(=O)N(*)C%11=O)cc9)CCCCCCCCCCC8)cc7)cc6C5=O)cc4)cc3C)c(C)c2)cc1` (repeat unit), which glass transition temperature is on record?
Its glass transition temperature is 257.00 °C.

For `*Cc1ccccc1CN(CC)c1ccc(/C=C(\C#N)C(=O)Nc2cccc(NC(=O)/C(C#N)=C/c3ccc(N(*)CC)cc3)c2)cc1` (repeat unit), which glass transition temperature is on record?
Its glass transition temperature is 188.00 °C.

For `*CC(O)C(O)CN(*)c1ccc(N(C)C)cc1` (repeat unit), which glass transition temperature is on record?
The glass transition temperature was 72.00 °C.

For `*Oc1cccc(NC(=O)c2cc(C(=O)Nc3ccc(*)cc3)cc(C(F)(F)C(F)(F)C(F)(F)C(F)(F)F)c2)c1` (repeat unit), which glass transition temperature is on record?
The glass transition temperature was 230.00 °C.

Which glass transition temperature does the source give for `*c1cccc(S(=O)(=O)NCCCCCCNS(*)(=O)=O)c1` (repeat unit) here?
The glass transition temperature was 67.00 °C.

With `*CCCCCCCCOc1c(OC)cc(/C=C/c2ccc(/C=C/c3cc(OC)c(O*)c(OC)c3)cc2)cc1OC` (repeat unit) as the compound, how does the glass transition temperature read?
The glass transition temperature was 69.40 °C.

With `*N=P(N=P(N=S(*)(=O)Nc1ccccc1)(Nc1ccccc1)Nc1ccccc1)(Nc1ccccc1)Nc1ccccc1` (repeat unit) as the compound, how does the glass transition temperature read?
Its glass transition temperature is 82.00 °C.

For `*SC1CCCC(*)C1` (repeat unit), which glass transition temperature is on record?
Its glass transition temperature is -52.00 °C.

For `*c1ccc(-c2cc(CCCCCC)c(-c3ccc(-c4ccc5ccc6ccc(*)nc6c5n4)cc3)cc2CCCCCC)cc1` (repeat unit), which glass transition temperature is on record?
Its glass transition temperature is 190.00 °C.

With `*OC1CCC(OC(=O)OCCCCCCCOC(*)=O)CC1` (repeat unit) as the compound, how does the glass transition temperature read?
The glass transition temperature was -5.00 °C.

For `*CCCCCCOC(=O)C(CCCCCCCCCCBr)C(=O)OCCCCCCOc1ccc(-n2on2-c2ccc(O*)cc2)cc1` (repeat unit), which glass transition temperature is on record?
The glass transition temperature was 16.00 °C.

Which glass transition temperature does the source give for `*C(F)(F)C1(*)OC(F)(C(F)(F)F)C(F)(C(F)(F)F)O1` (repeat unit) here?
Its glass transition temperature is 165.00 °C.

For `*CC(*)(C)C(=O)OC1CCCCC1` (repeat unit) [Poly(cyclohexyl methacrylate)], which glass transition temperature is on record?
Its glass transition temperature is 101.92 ± 20 °C.

With `*CCCCCN1C(=O)c2ccc(C(c3ccc4c(c3)C(=O)N(*)C4=O)(C(F)(F)F)C(F)(F)F)cc2C1=O` (repeat unit) as the compound, how does the glass transition temperature read?
The glass transition temperature was 180.00 °C.

For `*c1ccc(Cc2cccc(-n3c(=O)c4cc5c(=O)n(*)c(=O)c5cc4c3=O)c2)cc1` (repeat unit), which glass transition temperature is on record?
Its glass transition temperature is 339.00 °C.

For `*c1ccc(Oc2ccc(S(=O)(=O)c3ccc(Oc4ccc(-c5c6c(c(*)c7ccccc57)C(=O)N(c5ccccc5C(F)(F)F)C6=O)cc4)cc3)cc2)cc1` (repeat unit), which glass transition temperature is on record?
The glass transition temperature was 290.00 °C.

Which glass transition temperature does the source give for `*O[Si](*)(C)CC[Si](C)(C)O[Si](C)(C)CCCOc1cc(OC(=O)c2ccc(OCCCC)cc2)ccc1/N=N/c1ccc(OCCCC)cc1` (repeat unit) here?
The glass transition temperature was -4.00 °C.

Which glass transition temperature does the source give for `*Oc1ccc(-c2ccc(-c3ccc(Oc4ccc(C(C)(C)c5ccc(*)cc5)cc4)cc3)cc2)cc1` (repeat unit) here?
The glass transition temperature was 182.00 °C.

With `*CC(*)(C)c1ccc(C)cc1` (repeat unit) as the compound, how does the glass transition temperature read?
The glass transition temperature was 176.00 °C.

Which glass transition temperature does the source give for `*CC(*)OC(=O)C(C)(C)CCC` (repeat unit) here?
The glass transition temperature was 10.00 °C.

Which glass transition temperature does the source give for `*c1ccc2c(c1)C(=O)N(c1cccc(C(=O)Nc3ccc(Oc4ccc(Oc5ccc(NC(=O)c6cccc(N7C(=O)c8ccc(C(*)(C(F)(F)F)C(F)(F)F)cc8C7=O)c6)cc5)cc4)cc3)c1)C2=O` (repeat unit) here?
Its glass transition temperature is 283.00 °C.

With `*CCOC(=O)Cc1ccc(C(=O)O*)cc1` (repeat unit) as the compound, how does the glass transition temperature read?
Its glass transition temperature is 24.00 °C.

With `*CCCCCCOc1ccc(C(=O)N(C(=O)c2ccc(O*)cc2)c2cc(C)cc(C)c2)cc1` (repeat unit) as the compound, how does the glass transition temperature read?
Its glass transition temperature is 75.00 °C.

With `*C1C2CC(C(=O)OCCc3ccc(N(c4ccccc4)c4ccccc4)cc3)C(C2)C1*` (repeat unit) as the compound, how does the glass transition temperature read?
Its glass transition temperature is 307.00 °C.

With `*CC(*)(C#N)C(=O)OCCCC` (repeat unit) as the compound, how does the glass transition temperature read?
Its glass transition temperature is 117.00 °C.
